Results taken from patent publication EP4759810A1, “PROTAC TARGETING BCL-XL PROTEIN AND USE THEREOF” (BEIJING SUNCELL BIO-MEDICAL CO., LTD., priority 2023, dated 2025).
Like-named read-outs stand apart in the source and are kept apart here.

What was measured:
[1] = system: Molt-4 cells; assay: Molt-4 cell killing activity test (CCK-8); type: cell-based; conditions: for EC50: Homo sapiens
Outline: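 Molt-4 cells in RPMI-1640 with 10% FBS were exposed to compounds at 0.001–3 µM final, triplicate wells, for three days at 37°C. Viability was read by CCK-8 absorbance at 450 nm after 0.5–2 h, expressed relative to blank control.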

[2] = biological target: T1, Bcl-xL protein (Homo sapiens, UniProt Q07817); assay: Degradation experiment of Bcl-xL target protein (Western blot in Molt-4 cells); type: cell-based; conditions: 100 nM, 0, 2, 6, 16 h, GAPDH internal control, Figure 4
T1 construct: host or cells: Molt-4 cells
T1 sequence (Q07817 whole entry): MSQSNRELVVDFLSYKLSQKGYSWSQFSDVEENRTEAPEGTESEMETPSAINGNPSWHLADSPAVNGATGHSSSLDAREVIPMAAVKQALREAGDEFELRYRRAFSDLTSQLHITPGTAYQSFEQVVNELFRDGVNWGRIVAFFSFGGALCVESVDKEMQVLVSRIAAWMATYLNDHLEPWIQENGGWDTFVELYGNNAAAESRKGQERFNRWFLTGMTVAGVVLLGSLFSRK

[3] = system: HEF cells; assay: Senescent cell killing activity test, HEF cell model (CCK-8); type: cell-based, human; conditions: for activity for killing senescent cells at lower concentrations compared to A-1331852: HEF cell model, 0.01 µM and 0.03 µM; for killing senescent HEF cells: etoposide-induced senescent vs normal HEF cells, Figures 3A-3F; for toxicity on normal non-senescent HEF cells: higher concentration (25 µM)
[4] = system: platelets; assay: In vivo platelet toxicity test in mice
Protocol: The in vivo platelet toxicity test was performed by using 5-6 week old female C57BL/6J mice. The C57BL/6J mice were purchased from Beijing Vital River Laboratory Animal Technology Co., Ltd. and housed under specific pathogen-free (SPF) conditions, with a 12-hour light/12-hour dark cycle, and free access to food and water. […] Different doses of the molecules to be tested (e.g., 0.1, 0.5, 2.5 mg/kg or 2, 5, 20 mg/kg) were prepared in advance with the aforementioned vehicle, and administered to mice via intraperitoneal injection at a volume of 200 µL for each mouse. After administration was completed, approximately 50 µL of blood was collected from each mouse at different time points via the intra-canthus sampling method into EDTA anticoagulant tubes (RAM Scientific), then a routine analysis of blood was performed by using a hematology analyzer, and the platelets was counted.

[5] = 72 h, Molt-4 cells, three days, CCK-8, read-out: EC50 (Molt-4)
[6] = Bcl-xL-positive Molt-4 cells, read-out: cellular activity / killing activity (Molt-4 cells)

Compound	killing Molt-4 cells at different concentrations (Figure 1), in words ([1]; Figure 1, 0.001-3 µM, comparison with control molecules)	EC50 [1, 5]	EC50 [1, 6]	degradation of the Bcl-xL protein [2]	activity for killing senescent cells at lower concentrations compared to A-1331852 [3]	killing senescent HEF cells [3]	toxicity on normal non-senescent HEF cells [3]	platelet number ([4]; intraperitoneal, three tested dose groups 0.1, 0.5, and 2.5 mg/kg, Figure 5A)	platelet number in peripheral blood, in words ([4]; intraperitoneal, 5 mg/kg, Figure 5B)	platelet number at the highest dose ([4]; intraperitoneal, 20 mg/kg, decrease lower than A-1331852 at 2 mg/kg, Figure 5C)	platelet toxicity compared to A-1331852 at equivalent doses ([4]; intraperitoneal, 2, 5, and 20 mg/kg, Figure 5C)
O=C1CCC(N2C(=O)c3cccc(NCCN4CCC(CN5CCN(CC#Cc6ccc(OCCCc7ccc(N8CCc9cccc(C(=O)Nc%10nc%11ccccc%11s%10)c9C8)nc7C(=O)O)c(F)c6)CC5)CC4)c3C2=O)C(=O)N1 (centres unmarked) [APQ2]	comparable to A-1331852	< 10 nM	< 10 nM	had the ability to degrade the Bcl-xL protein	better activity for killing senescent cells at lower concentrations	efficiently and selectively kill senescent HEF cells	no toxicity on normal non-senescent HEF cells	no significant decrease in platelet number			
O=C1CCN(c2ccc(N3CCC(CN4CCN(CC#Cc5ccc(OCCCc6ccc(N7CCc8cccc(C(=O)Nc9nc%10ccccc%10s9)c8C7)nc6C(=O)O)c(F)c5)CC4)CC3)cc2)C(=O)N1 [APQ10]		< 10 nM	< 10 nM	had the ability to degrade the Bcl-xL protein	better activity for killing senescent cells at lower concentrations	efficiently and selectively kill senescent HEF cells	no toxicity on normal non-senescent HEF cells		slightly decrease in platelet number	significant decrease in the platelet number	lower platelet toxicity
